Measurements reported in patent publication US10173990B2, “URAT1 inhibitor” (Nippon Chemiphar Co., Ltd., priority 2014, dated 2019).

Biological target: URAT1 (Homo sapiens (Human), UniProt Q96S37)
Assay: Uptake of [14C] uric acid using HEK-URAT1
Type: cell-based
Conditions: for remaining activity at 10 µM: 2 min, [14C] uric acid uptake into URAT1 stably expressed HEK293 cells, 10 μM test compound, 5 μM uric acid, 2 minutes, 37° C., uptake without test compound = 100%, read-out: % control (10 μM); for IC50: inhibition of [14C] uric acid uptake into URAT1 stably expressed HEK293 cells
Description: More specifically, the test is performed by culturing URAT1 stably expressed HEK293 cells (HEK-URAT1) or HEK293 cells transfected with empty vector (HEK-mock) in a DMEM culture medium in an incubator. Subsequently, 1×10^5 cells are respectively seeded in 24-well culture plate coated with poly D-lysine and the uptake test is started after the culturing.
The cells are washed with a solution for a test warmed to 37° C. and equilibrated. After a buffer solution is removed from the cells, 0.5 mL of an uptake solution containing 5 μM [^14C] uric acid with or without a test compound is respectively added and the cells are incubated. The cell uptake is stopped by adding a Hanks buffer solution and the cells are washed. The cells are lysed with 0.1 N sodium hydroxide and the radioactivity is measured using LSC6100 (Aloka Co., Ltd. Tokyo). Each uptake into HEK-URAT1 is acquired by subtracting uptake into HEK-mock cells from the value of HEK-URAT1, converting the result to per mg protein of cells, and setting the values from the uptake without the test compound as 100%.
URAT1 stably expressed HEK293 cells (HEK-URAT1) or HEK293 cells transfected with empty vector (HEK-mock) were cultured in DMEM culture medium supplemented with 10% fetal bovine serum in an incubator under conditions of 5% carbon dioxide at 37° C. Subsequently, 1×10^5 cells were respectively seeded in 24-well culture plate coated with poly D-lysine and the uptake test was started after the culturing for 3 days.
The uptake experiment of uric acid was performed at 37° C. […] After a buffer solution was removed from the cells, 0.5 mL of an uptake solution containing 5 μM [^14C] uric acid with or without a test compound was respectively added and the cells were incubated for 2 minutes. The cell uptake was stopped by adding an ice-cold Hanks buffer solution without chloride ions and the cells were washed 3 times. The cells were lysed with 0.1 N sodium hydroxide and the radioactivity was measured using LSC6100 (Aloka Co., Ltd. Tokyo). Each uptake into HEK-URAT1 was acquired by subtracting uptake into HEK-mock cells from the value of HEK-URAT1, converting the result to per mg protein of cells, and setting the value from uptake without the test compound as 100%. The uptake in each condition was performed in triplicate and each value was represented by average±standard deviation.
The URAT1 inhibitory action was measured according to the same method as in Example 118.

URAT1, sequence (Q96S37 whole entry): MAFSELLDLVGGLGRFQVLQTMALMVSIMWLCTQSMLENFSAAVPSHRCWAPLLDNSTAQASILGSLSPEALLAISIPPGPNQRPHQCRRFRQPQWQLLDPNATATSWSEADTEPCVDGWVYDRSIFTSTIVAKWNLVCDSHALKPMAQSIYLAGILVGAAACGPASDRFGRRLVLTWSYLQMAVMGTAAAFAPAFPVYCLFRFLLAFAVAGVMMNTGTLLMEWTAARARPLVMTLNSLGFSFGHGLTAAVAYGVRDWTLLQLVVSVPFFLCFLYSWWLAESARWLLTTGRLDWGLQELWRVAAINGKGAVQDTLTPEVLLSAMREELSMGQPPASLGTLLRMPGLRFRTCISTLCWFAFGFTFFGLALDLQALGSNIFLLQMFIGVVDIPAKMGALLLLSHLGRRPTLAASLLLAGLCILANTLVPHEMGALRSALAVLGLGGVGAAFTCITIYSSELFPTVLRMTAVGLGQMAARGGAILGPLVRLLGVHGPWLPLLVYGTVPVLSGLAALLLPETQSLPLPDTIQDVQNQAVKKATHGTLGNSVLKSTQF

| remaining activity at 10 µM [%] | IC50 [nM] | Compound |
| --- | --- | --- |
| 2.3 | 205 | CC(C)(Sc1ccc2cnsc2c1-c1cccc(C#N)c1)C(=O)O [Example 84, 2-[[7-(3-Cyanophenyl)benzo[d]isothiazol-6-yl]thio]-2-methylpropanoic acid] |
| 3.8 |  | Cc1cc(-c2c(SC(C)(C)C(=O)O)ccc3cnsc23)ccc1C#N [Example 88, 2-[[7-(4-Cyano-3-methylphenyl)benzo[d]isothiazol-6-yl]thio]-2-methylpropanoic acid] |
| 13.8 | 2430 | Cc1nsc2c(-c3ccc(C#N)cc3)c(SC3(C(=O)O)CCC3)ccc12 [Example 112, 1-[[7-(4-Cyanophenyl)-3-methylbenzo[d]isothiazol-6-yl]thio]cyclobutan-1-carb oxylic acid] |
| < 0.1 | 21 | CCC(CC)(Sc1ccc2cnsc2c1-c1ccc(C#N)cc1)C(=O)O [Example 113, 2-[[7-(4-Cyanophenyl)benzo[d]isothiazol-6-yl]thio]-2-ethylbutanoic acid] |
| 2.7 | 296 | N#Cc1ccc(-c2c(SC3(C(=O)O)CCCCC3)ccc3cnsc23)cc1 [Example 117, 1-[[7-(4-Cyanophenyl)benzo[d]isothazol-6-yl]thio]cyclohexan-1-carboxylic acid] |
| < 0.1 | 106 | CC(C)(Sc1ccc2cnsc2c1-c1ccc(Cl)cc1)C(=O)O [Example 82, 2-[[7-(4-Chlorophenyl)benzo[d]isothiazol-6-yl]thio]-2-methylpropanoic acid] |
| 3.6 | 161 | CC(C)(Sc1ccc2cnsc2c1-c1ccc(C#N)c(F)c1)C(=O)O [Example 90, 2-[[7-(4-Cyano-3-fluorophenyl)benzo[d]isothiazol-6-yl]thio]-2-methylpropanoic acid] |
| 12.1 |  | Cc1cc(C#N)ccc1-c1c(SC(C)(C)C(=O)O)ccc2cnsc12 [Example 86, 2-[[7-(4-Cyano-2-methylphenyl)benzo[d]isothiazol-6-yl]thio]-2-methylpropanoic acid] |
| 29.2 |  | CC(C)(Sc1ccc2cnsc2c1-c1ccc(OC(F)(F)F)cc1)C(=O)O [Example 80, 2-Methyl-2-[[7-[4-(trifluoromethoxy)phenyl]benzo[d]isothiazol-6-yl]thio]propanoic acid] |
| 5.8 | 474 | CC(C)(C)C(Sc1ccc2cnsc2c1-c1ccc(C#N)cc1)C(=O)O (stereo not drawn) [Example 114, 2-[[7-(4-Cyanophenyl)benzo[d]isothiazol-6-yl]thio]-3,3-dimethylbutanoic acid] |

Continued, molecule first:

| Compound | remaining activity at 10 µM [%] | IC50 [nM] |
| --- | --- | --- |
| O=C(O)/C=C/Oc1ccc2ccccc2c1-c1cccnc1 [Example 10, (E)-3-[[1-(Pyridin-3-yl)naphthalen-2-yl]oxy]acrylic acid] | 27.1 |  |
| CC(C)(Oc1ccc2cnsc2c1-c1ccc(C#N)cc1)C(=O)O [Example 26, 2-[[7-(4-Cyanophenyl)benzo[d]isothiazol-6-yl]oxy]-2-methylpropanoic acid] | 11.6 |  |
| CC(C)(Sc1c(-c2ccc(C#N)cc2)cnc2ccccc12)C(=O)O [Example 45, 2-[[3-(4-Cyanophenyl)quinolin-4-yl]thio]-2-methylpropanoic acid] | 36.5 | 1580 |
| N#Cc1ccc(-c2c(SC3(C(=O)O)CCCC3)ccc3cnsc23)cc1 [Example 68, 1-[[7-(4-Cyanophenyl)benzo[d]isothiazol-6-yl]thio]cyclopentan-1-carboxylic acid] | < 0.1 | 26.2 |
| CC(C)(Oc1c(-c2ccc(C#N)cc2)ccc2ncsc12)C(=O)O [Example 37, 2-[[6-(4-Cyanophenyl)benzo[d]thiazol-7-yl]oxy]-2-methylpropanoic acid] | 78.6 |  |
| Cc1nc2ccc(SC(C)(C)C(=O)O)c(-c3ccc(C#N)cc3)c2s1 [Example 62, 2-[[7-(4-Cyanophenyl)-2-methylbenzo[d]thiazol-6-yl]thio]-2-methylpropanoic acid] | 49 |  |
| N#Cc1ccc(-c2c(O/C=C/C(=O)O)ccc3ncsc23)cc1 [Example 21, (E)-3-[[7-(4-cyanophenyl)benzo[d]thiazol-6-yl]oxy]acrylic acid] | 48.7 |  |
| CC(C)(Oc1ccc2ncoc2c1-c1ccc(C#N)cc1)C(=O)O [Example 17, 2-[[7-(4-Cyanophenyl)benzo[d]oxazol-6-yl]oxy]-2-methylpropanoic acid] | 59.3 |  |
| CC(C)(Sc1ccc2nc(C(F)(F)F)sc2c1-c1ccc(C#N)cc1)C(=O)O [Example 60, 2-[[7-(4-Cyanophenyl)-2-(trifluoromethyl)benzo[d]thiazol-6-yl]thio]-2-methylpropanoic acid] | 69.2 |  |
| CC(C)(Sc1ccc2cnsc2c1-c1ccc(C#N)cc1)C(=O)O [Example 28, 2-[[7-(4-Cyanophenyl)benzo[d]isothiazol-6-yl]thio]-2-methylpropanoic acid] | 0.1 |  |
| CC(C)c1ccc(-c2c(SC(C)(C)C(=O)O)ccc3cnsc23)cc1 [Example 76, 2-[[7-(4-Isopropylphenyl)benzo[d]isothiazol-6-yl]thio]-2-methylpropanoic acid] | 12.7 |  |
| CC(C)(Sc1ccc2ncsc2c1-c1ccc(C#N)cc1)C(=O)O [Example 24, 2-[[7-(4-Cyanophenyl)benzo[d]thiazol-6-yl]thio]-2-methylpropanoic acid] | 7.4 | 170 |
| N#Cc1ccc(-c2c(O/C=C\C(=O)O)ccc3ccccc23)cc1 [Example 7, (Z)-3-[[1-(4-Cyanophenyl)naphthalen-2-yl]oxy]acrylic acid] | 29.5 |  |
| CC(C)(Oc1ccc2ccccc2c1-c1ccc(C#N)c2ccccc12)C(=O)O [Example 2, 2-[(4′-Cyano-(1,1′-binaphthalene)-2-yl]oxy]-2-methylpropanoic acid] | 45.4 | 2060 |
| Cc1ccc(-c2c(SC(C)(C)C(=O)O)ccc3cnsc23)cc1 [Example 74, 2-Methyl-2-[[7-(p-tolyl)benzo[d]isothiazol-6-yl]thio]propanoic acid] | 6.8 |  |
| CC(C)(Sc1ccc2cnsc2c1-c1ccc(C(F)(F)F)cc1)C(=O)O [Example 78, 2-Methyl-2-[[7-[4-(trifluoromethyl)phenyl]benzo[d]isothiazol-6-yl]thio]propanoic acid] | 3.2 | 104 |
| CC(C)C(Sc1ccc2cnsc2c1-c1ccc(C#N)cc1)C(=O)O (stereo not drawn) [Example 70, 2-[[7-(4-Cyanophenyl)benzo[d]isothiazol-6-yl]thio]-3-methylbutanoic acid] | 6.4 |  |
| CC(C)(Sc1ccc2ncsc2c1-c1ccc(OC(F)(F)F)cc1)C(=O)O [Example 64, 2-Methyl-2-[[7-[4-(trifluoromethoxy)phenyl]benzo[d]thiazol-6-yl]thio]propanoic acid] | 30.1 |  |
| CC(C)(Oc1ccc2ccccc2c1-c1cccnc1)C(=O)O [Example 8, 2-Methyl-2-[[1-(pyridin-3-yl)naphthalen-2-yl]oxy]propanoic acid] | 61.3 |  |
| CC(C)(Oc1ccc2ncsc2c1-c1ccc(C#N)cc1)C(=O)O [Example 19, 2-[[7-(4-Cyanophenyl)benzo[d]thiazol-6-yl]oxy]-2-methylpropanoic acid] | 15.6 |  |
